ChEMBL document CHEMBL2040759, “Design, synthesis and anticancer activity of nitric oxide donating/chalcone hybrids” (2012)

Legend:
Type in all cases: functional
[1] = system: K562; experiment: Growth inhibition of human K562 cells after 48 hrs by SRB assay; conditions: K562, 48 h
[2] = system: SK-MEL-2; experiment: Growth inhibition of human SK-MEL-2 cells after 48 hrs by SRB assay; conditions: SK-MEL-2, 48 h
[3] = system: KM12; experiment: Growth inhibition of human KM12 cells after 48 hrs by SRB assay; conditions: KM12, 48 h
[4] = system: OVCAR-8; experiment: Growth inhibition of human OVCAR8 cells after 48 hrs by SRB assay; conditions: OVCAR-8, 48 h
[5] = system: HT-29; experiment: Growth inhibition of human HT-29 cells after 48 hrs by SRB assay; conditions: HT-29, 48 h
[6] = system: OVCAR-4; experiment: Growth inhibition of human OVCAR4 cells after 48 hrs by SRB assay; conditions: OVCAR-4, 48 h
[7] = system: SW-620; experiment: Growth inhibition of human SW620 cells after 48 hrs by SRB assay; conditions: SW-620, 48 h
[8] = system: ACHN; experiment: Growth inhibition of human ACHN cells after 48 hrs by SRB assay
[9] = system: CCRF-CEM; experiment: Growth inhibition of human CCRF-CEM cells after 48 hrs by SRB assay
[10] = system: MDA-MB-435; experiment: Growth inhibition of human MDA-MB-435 cells after 48 hrs by SRB assay; conditions: MDA-MB-435, 48 h
[11] = system: SK-OV-3; experiment: Growth inhibition of human SKOV3 cells after 48 hrs by SRB assay; conditions: SK-OV-3, 48 h
[12] = system: MDA-MB-231; experiment: Growth inhibition of human MDA-MB-231 cells after 48 hrs by SRB assay; conditions: MDA-MB-231, 48 h
[13] = system: Malme-3M; experiment: Growth inhibition of human MALME-3M cells after 48 hrs by SRB assay
[14] = system: U-251; experiment: Growth inhibition of human U251 cells after 48 hrs by SRB assay; conditions: U-251, 48 h
[15] = Growth inhibition of human Hs 578T cells after 48 hrs by SRB assay
[16] = system: T47D; experiment: Growth inhibition of human T47D cells after 48 hrs by SRB assay
[17] = system: NCI-H322M; experiment: Growth inhibition of human NCI-H322M cells after 48 hrs by SRB assay
[18] = system: MCF7; experiment: Growth inhibition of human MCF7 cells after 48 hrs by SRB assay; conditions: MCF7, 48 h
[19] = system: 786-0; experiment: Growth inhibition of human 786-0 cells after 48 hrs by SRB assay; conditions: 786-0, 48 h
[20] = system: SK-MEL-28; experiment: Growth inhibition of human SK-MEL-28 cells after 48 hrs by SRB assay; conditions: SK-MEL-28, 48 h
[21] = system: OVCAR-5; experiment: Growth inhibition of human OVCAR5 cells after 48 hrs by SRB assay; conditions: OVCAR-5, 48 h
[22] = Growth inhibition of human NCI-ADR-RES cells after 48 hrs by SRB assay
[23] = system: M14; experiment: Growth inhibition of human M14 cells after 48 hrs by SRB assay; conditions: M14, 48 h
[24] = system: UACC-257; experiment: Growth inhibition of human UACC257 cells after 48 hrs by SRB assay; conditions: UACC-257, 48 h
[25] = Growth inhibition of human RPMI18226 cells after 48 hrs by SRB assay; conditions: RPMI18226, 48 h
[26] = system: NCI-H226; experiment: Growth inhibition of human NCI-H226 cells after 48 hrs by SRB assay; conditions: NCI-H226, 48 h
[27] = system: EKVX; experiment: Growth inhibition of human EKVX cells after 48 hrs by SRB assay
[28] = system: DU-145; experiment: Growth inhibition of human DU145 cells after 48 hrs by SRB assay; conditions: DU-145, 48 h
[29] = system: RXF 393; experiment: Growth inhibition of human RXF393 cells after 48 hrs by SRB assay; conditions: RXF 393, 48 h
[30] = system: BT-549; experiment: Growth inhibition of human BT549 cells after 48 hrs by SRB assay; conditions: BT-549, 48 h
[31] = system: HL-60(TB); experiment: Growth inhibition of human HL-60(TB) cells after 48 hrs by SRB assay; conditions: HL-60, 48 h
[32] = system: MOLT-4; experiment: Growth inhibition of human MOLT4 cells assessed as cell growth at 10^-5 M after 48 hrs by SRB assay; conditions: MOLT-4, 48 h, read-out: Activity
[33] = system: HL-60(TB); experiment: Growth inhibition of human HL-60(TB) cells assessed as cell growth at 10^-5 M after 48 hrs by SRB assay; conditions: HL-60, 48 h, read-out: Activity
[34] = system: K562; experiment: Growth inhibition of human K562 cells assessed as cell growth at 10^-5 M after 48 hrs by SRB assay; conditions: K562, 48 h, read-out: Activity
[35] = read-out: LC50 (the source's name)

O=C(CO[N+](=O)[O-])Nc1ccc(C(=O)/C=C/c2ccc(Cl)cc2)cc1
GI50 [1]: 2.6 µM
TGI [1]: > 100 µM
CC50 [1, 35]: > 100 µM
GI50 [2]: 9.69 µM
TGI [2]: 23.3 µM
CC50 [2, 35]: 54.7 µM
GI50 [3]: 1.54 µM
TGI [3]: 3.1 µM
CC50 [3, 35]: 6.23 µM
GI50 [4]: 3.24 µM
TGI [4]: 14 µM
CC50 [4, 35]: 63 µM
GI50 [5]: 2.36 µM
TGI [5]: 6.36 µM
CC50 [5, 35]: > 100 µM
GI50 [6]: 4.06 µM
TGI [6]: 21 µM
CC50 [6, 35]: 76.5 µM
GI50 [7]: 1.44 µM
TGI [7]: 2.88 µM
CC50 [7, 35]: 5.77 µM
GI50 [8]: 3.3 µM
TGI [8]: 17 µM
CC50 [8, 35]: > 100 µM
GI50 [9]: 2.73 µM
TGI [9]: 16.5 µM
CC50 [9, 35]: > 100 µM
GI50 [10]: 2.96 µM
TGI [10]: 11.2 µM
CC50 [10, 35]: 59 µM
GI50 [11]: 10.1 µM
TGI [11]: 65.9 µM
CC50 [11, 35]: > 100 µM
GI50 [12]: 5.39 µM
TGI [12]: 21.2 µM
CC50 [12, 35]: 62 µM
GI50 [13]: 2.13 µM
TGI [13]: 6.61 µM
CC50 [13, 35]: 76.2 µM
GI50 [14]: 1.48 µM
TGI [14]: 3.15 µM
CC50 [14, 35]: 6.68 µM
GI50 [15]: 2.85 µM
TGI [15]: 14.2 µM
CC50 [15, 35]: > 100 µM
GI50 [16]: 3.26 µM
TGI [16]: 14.9 µM
CC50 [16, 35]: 58.3 µM
GI50 [17]: 10.3 µM
TGI [17]: 22.6 µM
CC50 [17, 35]: 49.6 µM
GI50 [18]: 0.67 µM
TGI [18]: 6.44 µM
CC50 [18, 35]: > 100 µM
GI50 [19]: 11.6 µM
TGI [19]: 48 µM
CC50 [19, 35]: > 100 µM
GI50 [20]: 4.96 µM
TGI [20]: 18.1 µM
CC50 [20, 35]: 49.5 µM
GI50 [21]: 14.8 µM
TGI [21]: 36 µM
CC50 [21, 35]: 87.8 µM
GI50 [22]: 3.87 µM
TGI [22]: > 100 µM
CC50 [22, 35]: > 100 µM
GI50 [23]: 2.05 µM
TGI [23]: 4.96 µM
CC50 [23, 35]: 17.9 µM
GI50 [24]: 4.33 µM
TGI [24]: 15.9 µM
CC50 [24, 35]: 40.7 µM
GI50 [25]: 1.41 µM
TGI [25]: 8.36 µM
CC50 [25, 35]: > 100 µM
GI50 [26]: 5.15 µM
TGI [26]: 29 µM
CC50 [26, 35]: > 100 µM
GI50 [27]: 15 µM
TGI [27]: 74.6 µM
CC50 [27, 35]: > 100 µM
GI50 [28]: 3.41 µM
TGI [28]: 13.5 µM
CC50 [28, 35]: 36.7 µM
GI50 [29]: 4.82 µM
TGI [29]: 17.8 µM
CC50 [29, 35]: 48.5 µM
GI50 [30]: 1.86 µM
TGI [30]: 5 µM
CC50 [30, 35]: > 100 µM
GI50 [31]: 3.59 µM
TGI [31]: > 100 µM
CC50 [31, 35]: > 100 µM

O=C(CO[N+](=O)[O-])Nc1ccc(C(=O)/C=C/c2ccc3c(c2)OCO3)cc1
growth at 10 µM [32]: 99.7%
growth at 10 µM [33]: 73.7%
growth at 10 µM [34]: 59.1%
